A short description of series [1]: in vitro. The note with it: human; for CC50 at 5 days: uninfected MT-4 cells.
In series [2] the test system is pLAI reporter virus. The series is described as follows: microbe, parasite or virus in culture. It is filed as cell-based, HIV. As to conditions: Human immunodeficiency virus 1, MT4, 72 h.
The subject of series [3] is HIV-1 (IIIB). The series is described as follows: microbe, parasite or virus in culture. Type of series: cell-based. The note with it: Human immunodeficiency virus 1, IIIB, MT4, 120 h, read-out: MT4 EC50.
Setting [4] is: HIV-1 (IIIB) in MT-4 cells, 5 days incubation, Cell Titer Glo.

Here are results for 16 molecules from US20250115620A1, “BRIDGED TRICYCLIC CARBAMOYLPYRIDONE COMPOUNDS AND USES THEREOF” (Gilead Sciences, Inc., priority 2022, published 2025).

pEC50: −log10 of the molar value. Where two headings read alike, the source gives them in different places.

The pEC50 is −log10 of the EC50, conventionally taken in molar units.

In the case of `C[C@H]1CC[C@]2(CC(C(C)(F)F)=NO2)[C@H]2CN1C(=O)c1c(O)c(=O)c(C(=O)NCc3c(F)cc(F)cc3F)cn12` [Example 71, (3′S,5S,7′R)-3-(1,1-difluoroethyl)-12′-hydroxy-3′-methyl-1′,11′-dioxo-N-(2,4,6-trifluorobenzyl)-1′,4′,5′,11′-tetrahydro-3′H,4H,7′H-spiro[isoxazole-5,6′-[2,7]methanopyrido[1,2-a][1,4]diazonine]-10′-carboxamide], the CC50 at 5 days in series [1] is 32.1 µM. Besides, the pEC50 in series [2] (read-out: RLUC 50% HS EC50) was 7.08; in series [2] (read-out: RLUC CCM EC50) it was 9.70; in series [3] (setting [4]), 8.48.

In series [1], `C[C@H]1CCC2(OCCO2)[C@H]2CN1C(=O)c1c(O)c(=O)c(C(=O)NCc3c(F)cc(F)cc3F)cn12` [Example 125, (3′S,7′R)-12′-hydroxy-3′-methyl-1′,11′-dioxo-N-(2,4,6-trifluorobenzyl)-1′,4′,5′,11′-tetrahydro-3′H,7′H-spiro[[1,3]dioxolane-2,6′-[2,7]methanopyrido[1,2-a][1,4]diazonine]-10′-carboxamide] registered a CC50 at 5 days of 24.2 µM. Further, the pEC50 in series [2] (read-out: RLUC 50% HS EC50) is 7.52; in series [2] (read-out: RLUC CCM EC50), 9.70; in series [3] (setting [4]), 9.15.

In the case of `C[C@H]1CC[C@@]2(CNC(=O)C2)[C@H]2CN1C(=O)c1c(O)c(=O)c(C(=O)NCc3c(F)cc(F)cc3F)cn12` [Example 57, (3R,3′S, 7′S)-12′-hydroxy-3′-methyl-1′,5,11′-trioxo-N-(2,4,6-trifluorobenzyl)-1′,4′,5′,11′-tetrahydro-3′H, 7′H-spiro[pyrrolidine-3,6′-[2,7]methanopyrido[ ],2-a][1,4]diazonine-10′-carboxamide], in series [1], the CC50 is not below 50 µM. For the same molecule, the negative logarithm of the EC50 (pEC50) in series [2] (read-out: RLUC 50% HS EC50) is 8.22; in series [2] (read-out: RLUC CCM EC50), 7.86; in series [3] it was 7.55.

Consider `C[C@H]1CC[C@]2(CC(=O)N(Cc3ccc(F)cc3F)O2)[C@H]2CN1C(=O)c1c(O)c(=O)c(C(=O)NCc3c(F)cc(F)cc3F)cn12` [Example 110, (3′S,5S,7′R)-2-(2,4-difluorobenzyl)-12′-hydroxy-3′-methyl-1′,3,11′-trioxo-N-(2,4,6-trifluorobenzyl)-1′,4′,5′,11′-tetrahydro-3′H,7′H-spiro[isoxazolidine-5,6′-[2,7]methanopyrido[1,2-a][1,4]diazonine]-10′-carboxamide], for which the CC50 at 5 days in series [1] worked out at 12 µM. The pEC50 was 8.54 in series [2] (read-out: RLUC 50% HS EC50), 9.52 in series [2] (read-out: RLUC CCM EC50) and 8.92 in series [3] (setting [4]).

Molecule `COc1ccc(CN2O[C@@]3(CC[C@H](C)N4C[C@H]3n3cc(C(=O)NCc5c(F)cc(F)cc5F)c(=O)c(O)c3C4=O)CC2=O)cc1` [Example 119, (3′S,5S,7′R)-12′-hydroxy-2-(4-methoxybenzyl)-3′-methyl-1′,3,11′-trioxo-N-(2,4,6-trifluorobenzyl)-1′,4′,5′,11′-tetrahydro-3′H,7′H-spiro[isoxazolidine-5,6′-[2,7]methanopyrido[1,2-a][1,4]diazonine]-10′-carboxamide] gave a CC50 at 5 days in series [1] not below 50 µM. In addition, the pEC50 in series [2] (read-out: RLUC 50% HS EC50) is 8.64; in series [2] (read-out: RLUC CCM EC50), 9.30; in series [3] (setting [4]), 8.82.

Regarding `CCC1=NO[C@@]2(CC[C@H](C)N3C[C@H]2n2cc(C(=O)NCc4c(F)cc(F)cc4F)c(=O)c(O)c2C3=O)C1` [Example 67, (3′S,5S,7′R)-3-ethyl-12′-hydroxy-3′-methyl-1′,11′-dioxo-N-(2,4,6-trifluorobenzyl)-1′,4′,5′,11′-tetrahydro-3′H,4H,7′H-spiro[isoxazole-5,6′-[2,7]methanopyrido[1,2-a][1,4]diazonine]-10′-carboxamide], in series [1], the CC50 at 5 days was determined as 20 µM. The pEC50 in series [2] (read-out: RLUC 50% HS EC50) was 6.72; in series [2] (read-out: RLUC CCM EC50) it was 9.52; in series [3] (setting [4]), 8.89.

On to `COC1=NO[C@@]2(CC[C@H](C)N3C[C@H]2n2cc(C(=O)NCc4c(F)cc(F)cc4F)c(=O)c(O)c2C3=O)[C@H]1F` [Example 87, (3′S,4R,5R,7′R)-4-fluoro-12′-hydroxy-3-methoxy-3′-methyl-1′,11′-dioxo-N-(2,4,6-trifluorobenzyl)-1′,4′,5′,11′-tetrahydro-3′H,4H,7′H-spiro[isoxazole-5,6′-[2,7]methanopyrido[1,2-a][1,4]diazonine]-10′-carboxamide], for which the CC50 at 5 days in series [1] amounted to 10.5 µM. For the same molecule, the results for the pEC50 in series [2] (read-out: RLUC 50% HS EC50), in series [2] (read-out: RLUC CCM EC50) and in series [3] (setting [4]) were 7.50, 9.70 and 8.92, respectively.

In the case of `CC1=NO[C@]2(CC[C@H](C)N3C[C@H]2n2cc(C(=O)NCc4c(F)cc(F)cc4F)c(=O)c(O)c2C3=O)C1` [Example 4, (3′S,5R,7′R)-12′-hydroxy-3,3′-dimethyl-1′,11′-dioxo-N-(2,4,6-trifluorobenzyl)-1′,4′,5′,11′-tetrahydro-3′H,4H,7′H-spiro[isoxazole-5,6′-[2,7]methanopyrido[1,2-a][1,4]diazonine]-10′-carboxamide], the CC50 at 5 days in series [1] is not below 50 µM. In addition, the figures for the pEC50 in series [2] (read-out: RLUC 50% HS EC50), in series [2] (read-out: RLUC CCM EC50) and in series [3] (setting [4]) were 8.34, 8.52 and 8.24, respectively.

`COC1=NO[C@@]2(CC[C@H](C)N3C[C@H]2n2cc(C(=O)NCc4ccc(F)c(Cl)c4F)c(=O)c(O)c2C3=O)C1` [Example 49, (3′S,5S,7′R)—N-(3-chloro-2,4-difluorobenzyl)-12′-hydroxy-3-methoxy-3′-methyl-1′,11′-dioxo-1′,4′,5′,11′-tetrahydro-3′H,4H,7′H-spiro[isoxazole-5,6′-[2,7]methanopyrido[1,2-a][1,4]diazonine]-10′-carboxamide]: in series [1], the CC50 at 5 days was found to be 29.8 µM. The pEC50 was 6.91 in series [2] (read-out: RLUC 50% HS EC50), 9.52 in series [2] (read-out: RLUC CCM EC50) and 9.15 in series [3] (setting [4]).

`C[C@H]1CC[C@]2(CC(=O)N(Cc3cccc4ccccc34)O2)[C@H]2CN1C(=O)c1c(O)c(=O)c(C(=O)NCc3c(F)cc(F)cc3F)cn12` [Example 106, (3′S,5S,7′R)-12′-hydroxy-3′-methyl-2-(naphthalen-1-ylmethyl)-1′,3,11′-trioxo-N-(2,4,6-trifluorobenzyl)-1′,4′,5′,11′-tetrahydro-3′H,7′H-spiro[isoxazolidine-5,6′-[2,7]methanopyrido[1,2-a][1,4]diazonine]-10′-carboxamide] had a CC50 at 5 days in series [1] not below 50 µM. For the same molecule, the pEC50 in series [2] (read-out: RLUC 50% HS EC50) is 7.19; in series [2] (read-out: RLUC CCM EC50), 9.70; in series [3] (setting [4]) it was 9.05.

For the molecule `C[C@H]1CC[C@]2(COCO2)[C@H]2CN1C(=O)c1c(O)c(=O)c(C(=O)NCc3c(F)cc(F)cc3F)cn12` [Example 130, (3′S,4R,7′R)-12′-hydroxy-3′-methyl-1′,11′-dioxo-N-(2,4,6-trifluorobenzyl)-1′,4′,5′,11′-tetrahydro-3′H,7′H-spiro[[1,3]dioxolane-4,6′-[2,7]methanopyrido[1,2-a][1,4]diazonine]-10′-carboxamide], in series [1], the CC50 at 5 days worked out at 9.84 µM. Besides, the pEC50 in series [2] (read-out: RLUC 50% HS EC50) is 6.44; in series [2] (read-out: RLUC CCM EC50) it was 9.70; in series [3] (setting [4]), 9.05.

In series [1], `C[C@H]1CC[C@]2(CC(C#CC(C)(C)S(C)(=O)=O)=NO2)[C@H]2CN1C(=O)c1c(O)c(=O)c(C(=O)NCc3c(F)cc(F)cc3F)cn12` [Example 79, (3′S,5S,7′R)-12′-hydroxy-3′-methyl-3-(3-methyl-3-(methylsulfonyl)but-1-yn-1-yl)-1′,11′-dioxo-N-(2,4,6-trifluorobenzyl)-1′,4′,5′,11′-tetrahydro-3′H,4H,7′H-spiro[isoxazole-5,6′-[2,7]methanopyrido[1,2-a][1,4]diazonine]-10′-carboxamide] yielded a CC50 at 5 days not below 50 µM. In addition, the pEC50 is 8.85 in series [2] (read-out: RLUC 50% HS EC50), 9.00 in series [2] (read-out: RLUC CCM EC50) and 8.32 in series [3] (setting [4]).

In series [1], `C[C@H]1CC[C@]2(COC(C)(C)O2)[C@H]2CN1C(=O)c1c(O)c(=O)c(C(=O)NCc3c(F)cc(F)cc3F)cn12` [Example 137, (3′S,4R,7′R)-12′-hydroxy-2,2,3′-trimethyl-1′,11′-dioxo-N-(2,4,6-trifluorobenzyl)-1′,4′,5′,11′-tetrahydro-3′H,7′H-spiro[[1,3]dioxolane-4,6′-[2,7]methanopyrido[1,2-a][1,4]diazonine]-10′-carboxamide] returned a CC50 at 5 days of 42.4 µM. Also, the pEC50 in series [2] (read-out: RLUC 50% HS EC50) was 7.88; in series [2] (read-out: RLUC CCM EC50) it was 9.52; in series [3] (setting [4]), 8.82.

In series [1], `C[C@H]1CC[C@]2(CC(CF)=NO2)[C@H]2CN1C(=O)c1c(O)c(=O)c(C(=O)NCc3c(F)cc(F)cc3F)cn12` [Example 19, (3′S,5S,7′R)-3-(fluoromethyl)-12′-hydroxy-3′-methyl-1′,11′-dioxo-N-(2,4,6-trifluorobenzyl)-1′,4′,5′,11′-tetrahydro-3′H,4H,7′H-spiro[isoxazole-5,6′-[2,7]methanopyrido[1,2-a][1,4]diazonine]-10′-carboxamide] yielded a CC50 at 5 days of 22.9 µM. Besides, the negative-log EC50 (pEC50) in series [2] (read-out: RLUC 50% HS EC50) is 6.79; in series [2] (read-out: RLUC CCM EC50), 9.70; in series [3], 9.00.

In the case of `C[C@H]1CC[C@]2(OC[C@@H](Cc3ccccc3)O2)[C@H]2CN1C(=O)c1c(O)c(=O)c(C(=O)NCc3c(F)cc(F)cc3F)cn12` (single isomer, unassigned) [169 (peak 2)], the CC50 at 5 days in series [1] worked out at 45.1 µM. For the same molecule, the pEC50 in series [2] (read-out: RLUC 50% HS EC50) was 8.40; in series [2] (read-out: RLUC CCM EC50), 8.70; in series [3] (setting [4]) it was 8.37.

In series [1], `CSC1=NO[C@@]2(CC[C@H](C)N3C[C@H]2n2cc(C(=O)NCc4c(F)cc(F)cc4F)c(=O)c(O)c2C3=O)C1` [Example 43, (3′S,5S,7′R)-12′-hydroxy-3′-methyl-3-(methylthio)-1′,11′-dioxo-N-(2,4,6-trifluorobenzyl)-1′,4′,5′,11′-tetrahydro-3′H,4H,7′H-spiro[isoxazole-5,6′-[2,7]methanopyrido[1,2-a][1,4]diazonine]-10′-carboxamide] came in with a CC50 at 5 days of 33.4 µM. Further, the values for the pEC50 in series [2] (read-out: RLUC 50% HS EC50), in series [2] (read-out: RLUC CCM EC50) and in series [3] (setting [4]) were 6.55, 8.82 and 8.21, respectively.
